Several values for one entry are separate records, joined by “and”; a condition that tells them apart may be missing. Equal entries are not always repeated. Where two headings read alike, the source gives them in different places. Marks after values point to notes of the source that are not given here.
Tests used:
[1] = target: T1, BSA (bovine serum albumin) (Bos taurus, UniProt P02769); settings: 2% BSA; Hung et al., 1996; cited from earlier work
T1 construct: BSA (bovine serum albumin, fraction V, Sigma); purchased Sigma; host or cells: bovine serum (fraction V)

[2] = tested on: human platelet rich plasma; assay: Platelet aggregation induced by arachidonic acid; assay type: cell-based; settings: compound 600 µM, 37° C., arachidonic acid 200 µM
Protocol: Platelet aggregation studies were carried out using a single channel Lumiaggregometer (Chrono-Log Company, Haverton, Pa.) at 37° C. using human platelet-rich and platelet-poor plasma. Platelet-rich plasma (PRP) with a platelet concentration of […] (measured with a Coulter counter) was prepared by centrifuging 3.8% citrated […] (1:9) at 1,500 rpm using a (Beckman) benchtop centrifuge at room temperature for 15 minutes. Platelet-poor plasma (PPP) was prepared by further centrifuging residual blood from platelet-rich plasma at 3,000 rpm for 30 minutes. Platelet-poor plasma was also confirmed b y Coulter counting for platelet content.
Platelet aggregation studies were preceded by pipetting 0.4 mL platelet-rich plasma into a stirred aggregometer tube and calibrate to 90% of recorder. Platelet-poor plasma was set to calibrate at 10% of recorder. Platelet aggregation was initiated by the addition of a arachidonic acid (Sigma) or ADP (Sigma).
10 mM solutions of each compound (TABLE 6) were prepared in 1 mL of normal saline solution (containing 4% BSA) before use. An aliquot (400 μL) of platelet-rich plasma was pipetted into a stirred aggregometer tube at 37° C. and 30 μL of test sample added simultaneously. This mixture was preincubated for varying period (3 to 45 minutes), then arachidonic acid (AA) was added (final conc.=200 μM) to initiate platelet aggregation. If no aggregation occurred, 20 μM ADP was added to confirm the vitality of the platelets (if the platelets are vital, ADP will induce this AA-test sample-plasma mixture to aggregate). This procedure is necessary to investigate whether the non-aggregation phenomenon is due to drug inhibition or simply due to inviable platelets (unable to respond to AA). The degree of aggregation was measure by calculating the area under the turbidimetric response curve (AUC).

[3] = Maximum solubility in 2% BSA Krebs-Henseleit buffer (pH 7.4); assay type: physicochemical; settings: 25 1° C.
Description: The intrinsic solubility of diflunisal esters is extremely low (TABLE 2). The more lipophilic the analogue, the higher the solubility of solute under these conditions.

[4] = In vitro non-enzymatic hydrolysis in Krebs-Henseleit buffer; assay type: physicochemical; settings: for Hydrolysis rate constant (k): pH 7.4, 25° C., n=5; for half-life: pH 7.4, read-out: Half life (t1/2) (converted)
Outline: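 Derivatives dissolved in Krebs-Henseleit buffer, pH 7.4, 25±1° C, with no protein or 2% w/v BSA; solutions sonicated and centrifuged, supernatant sampled over time. First-order hydrolysis rate constant k derived from ester concentration vs time, and half-life calculated from k.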

[5] = tested on: in-situ perfused rat liver; assay: In-situ rat liver perfusions, hepatic extraction (Example 4); assay type: in vitro ADME; settings: hepatic extraction=1- hepatic availability (F)
Protocol: The hepatic availability (F) for the O-acyl esters of SA and DF was determined using a once through in-situ perfused rat liver preparation (Mellick and Roberts, 1996, J Pharm Pharmacol 48:738-743). Liver was perfused with protein-free Krebs-Henseleit buffer at 30 mL/min for aspirin analogues and with Krebs-Henseleit buffer containing 2% BSA for diflunisal esters studies. Since the solubilities of the diflunisal esters in protein-free media were very low, 2% BSA were used to help to solubilize these compounds. Briefly, 50 μL of a saturated solution of the particular O-acyl SA or DF in Krebs-Henseleit buffer was injected as a bolus into the portal vein cannula. Perfusate outflow samples have collected via a fraction collector over 3 min. 100 μL of these samples was assayed by HPLC to determine the residual concentration of presented ester and the quantity of phenolic metabolite (SA or DF) collected from the perfused liver. The HPLC assay was a modification of the method used by Owen et al. (1987, J Chrom B Biomed Appl 416 293-302) and Rumble et al. (1981, J Chrom 225 252-260).
The hepatic availability (F) was calculated from the ratio of the area under the first moment curve, i.e., outflow concentration time-time profile to the area under the curve for the salicylate phenolic esters, with the assistance of the Moments Calculator 2.2 program for Macintosh computer developed by Robert Purves (1994, J Pharm Sci 83:202-205).

[6] = Intrinsic (maximum) solubility in water at pH 1.5; assay type: physicochemical; settings: 25 °C, pH 1.5, simulated gastric fluid
Protocol: The pH conditions were chosen to ensure that the solubility of the unionised species was estimated. […] Lea & Febiger/Philadelphia. […] […] The solvent (9.9 mL) was then added to the test tube. […] The test tube was sonicated for 15 minutes and centrifuged for 10 minutes (3000 g at 25° C.). An aliquot was filtered (Minisart 0.45 μm filter, Satorius) and diluted with HPLC mobile phase, then assayed. The tube was stored carefully in a 25° C. water bath after sampling and the remaining suspension was again sonicated and the process repeated 7 times at four hourly intervals. In these assays, standard curves were prepared by directly dissolving the esters in mobile phase. Concentrations for standard curves ranged from 1-50 μg/mL for all compounds. Furthermore, a manual injector (Waters Model U6K) was used (20 μL sample loop) which ensured that 20 μL was consistently injected onto the column and precluded the need for an internal standard.

[7] = 2% BSA in Krebs-Henseleit buffer as perfusate
[8] = protein-free Krebs-Henseleit buffer as perfusate
[9] = Krebs-Henseleit buffer 0% BSA, U = Undetectable
[10] = bovine, Krebs-Henseleit buffer with 2% w/v BSA
[11] = protein-free Krebs-Henseleit buffer, Krebs-Henseleit buffer 0% BSA, first half life, t1/2=0.693/k, U = Undetectable

T1 sequence (P02769 25-607): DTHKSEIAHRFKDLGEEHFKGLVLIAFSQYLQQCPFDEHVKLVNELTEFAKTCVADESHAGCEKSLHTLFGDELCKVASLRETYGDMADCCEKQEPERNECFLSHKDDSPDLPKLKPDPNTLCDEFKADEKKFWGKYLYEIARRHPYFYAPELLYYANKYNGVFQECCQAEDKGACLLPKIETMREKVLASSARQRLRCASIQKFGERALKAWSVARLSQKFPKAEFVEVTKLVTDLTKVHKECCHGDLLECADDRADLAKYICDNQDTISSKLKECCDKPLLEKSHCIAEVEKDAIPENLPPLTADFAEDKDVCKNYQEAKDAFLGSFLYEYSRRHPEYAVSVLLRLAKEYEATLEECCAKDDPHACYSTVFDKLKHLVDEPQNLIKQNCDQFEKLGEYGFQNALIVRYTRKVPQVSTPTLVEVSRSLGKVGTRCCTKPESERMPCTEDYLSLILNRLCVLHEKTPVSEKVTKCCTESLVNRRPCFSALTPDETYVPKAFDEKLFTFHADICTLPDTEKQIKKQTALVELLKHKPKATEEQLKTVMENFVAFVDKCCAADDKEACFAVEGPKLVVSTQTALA

For `CCCCC(=O)Oc1ccc(-c2ccc(F)cc2F)cc1C(=O)O` [Compound C5D, n-pentanoyldiflunisal], the “fub (unbound fraction)” value [1] is given as 0.12 ± 0.01, the “Platelet Aggregation (% of control)” value ([2]; preincubation 3 minutes) is given as 97.1 ± 0.1 % of control and the “Platelet Aggregation (% of control)” value ([2]; preincubation 5 minutes) is given as 95.3 ± 0.7 % of control. For the same molecule, the “Platelet Aggregation (% of control)” value ([2]; preincubation 8 minutes) was 90.6 ± 0.9 % of control, the “Platelet Aggregation (% of control)” value ([2]; preincubation 10 minutes) was 87.3 ± 3.1 % of control and the “Platelet Aggregation (% of control)” value ([2]; preincubation 12 minutes) was 75.9 ± 0.1 % of control. For the same molecule, the “Platelet Aggregation (% of control)” value ([2]; preincubation 15 minutes) was 57.5 ± 1.7 % of control, the “Platelet Aggregation (% of control)” value ([2]; preincubation 20 minutes) was 0 % of control and the “Platelet Aggregation (% of control)” value ([2]; preincubation 25 minutes) was 0 % of control. The “Platelet Aggregation (% of control)” value ([2]; preincubation 45 minutes) was 0 % of control, the Maximum solubility [3] was 20.90 mM and the Maximum solubility ([3]; mean standard deviation (n=3)) was 6980 ± 150 µg/mL. For the same molecule, the “Hydrolysis rate constant (k)” value ([4]; Krebs-Henseleit buffer 2% BSA) was 0.0113 ± 0.0037 hour^1 and the Hepatic extraction [5, 7] was 0.62.
With “O-acetylsalicylic acid [Compound C2SA, reference compound]” the “Platelet Aggregation (% of control)” value ([2]; preincubation 3 minutes) was 0 % of control, the “Platelet Aggregation (% of control)” value ([2]; preincubation 5 minutes) was 0 % of control and the “Platelet Aggregation (% of control)” value ([2]; preincubation 8 minutes) was 0 % of control. For the same molecule, the “Platelet Aggregation (% of control)” value ([2]; preincubation 10 minutes) was 0 % of control, the “Platelet Aggregation (% of control)” value ([2]; preincubation 12 minutes) was 0 % of control and the “Platelet Aggregation (% of control)” value ([2]; preincubation 15 minutes) was 0 % of control. For the same molecule, the “Platelet Aggregation (% of control)” value ([2]; preincubation 20 minutes) was 0 % of control, the “Platelet Aggregation (% of control)” value ([2]; preincubation 25 minutes) was 0 % of control and the “Platelet Aggregation (% of control)” value ([2]; preincubation 45 minutes) was 0 % of control. The Hepatic extraction [5, 8] was 0.15.
In the case of `CCCC(=O)Oc1ccc(-c2ccc(F)cc2F)cc1C(=O)O` [Compound C4D, n-butanoyldiflunisal], the “fub (unbound fraction)” value [1] is listed as 0.14 ± 0.01, the “Platelet Aggregation (% of control)” value ([2]; preincubation 3 minutes) is listed as 96.1 ± 0.3 % of control and the “Platelet Aggregation (% of control)” value ([2]; preincubation 5 minutes) is listed as 90.3 ± 2.1 % of control. The “Platelet Aggregation (% of control)” value ([2]; preincubation 8 minutes) was 73.9 ± 0.7 % of control, the “Platelet Aggregation (% of control)” value ([2]; preincubation 10 minutes) was 57.3 ± 0.1 % of control and the “Platelet Aggregation (% of control)” value ([2]; preincubation 12 minutes) was 31.8 ± 0.4 % of control. The “Platelet Aggregation (% of control)” value ([2]; preincubation 15 minutes) was 0 % of control, the “Platelet Aggregation (% of control)” value ([2]; preincubation 20 minutes) was 0 % of control and the “Platelet Aggregation (% of control)” value ([2]; preincubation 25 minutes) was 0 % of control. For the same molecule, the “Platelet Aggregation (% of control)” value ([2]; preincubation 45 minutes) was 0 % of control, the Maximum solubility [3] was 12.38 mM and the Maximum solubility ([3]; mean standard deviation (n=3)) was 3960 ± 80 µg/mL. For the same molecule, the “Hydrolysis rate constant (k)” value ([4]; Krebs-Henseleit buffer 2% BSA) was 0.0138 ± 0.0058 hour^1 and the Hepatic extraction [5, 7] was 0.66.
In the case of `CCCCCC(=O)Oc1ccccc1C(=O)O` [Compound C6SA, n-hexanoylsalicylic acid], the solubility [6] is reported as 19 µg/mL and 80 µM, the “Platelet Aggregation (% of control)” value ([2]; preincubation 3 minutes) is reported as 90.1 ± 2.2 % of control and the “Platelet Aggregation (% of control)” value ([2]; preincubation 5 minutes) is reported as 70.5 ± 3.1 % of control. For the same molecule, the “Platelet Aggregation (% of control)” value ([2]; preincubation 8 minutes) was 39.9 ± 1.1 % of control, the “Platelet Aggregation (% of control)” value ([2]; preincubation 10 minutes) was 0 % of control and the “Platelet Aggregation (% of control)” value ([2]; preincubation 12 minutes) was 0 % of control. For the same molecule, the “Platelet Aggregation (% of control)” value ([2]; preincubation 15 minutes) was 0 % of control, the “Platelet Aggregation (% of control)” value ([2]; preincubation 20 minutes) was 0 % of control and the “Platelet Aggregation (% of control)” value ([2]; preincubation 25 minutes) was 0 % of control. The “Platelet Aggregation (% of control)” value ([2]; preincubation 45 minutes) was 0 % of control, the “Hydrolysis rate constant (k)” value [4, 9] was 0.0059 ± 0.0023 hour^1 and the “Hydrolysis rate constant (k)” value ([4]; Krebs-Henseleit buffer 2% BSA) was 0.0021 ± 0.0017 hour^1. For the same molecule, the half-life [4, 10] was 330 h, the half-life [4, 11] was 117 h and the Hepatic extraction [5, 8] was 0.98.
In the case of `CCCCC(=O)Oc1ccccc1C(=O)O` [Compound C5SA, n-pentanoylsalicylic acid], the solubility [6] is reported as 74 µg/mL and 330 µM, the “Platelet Aggregation (% of control)” value ([2]; preincubation 3 minutes) is reported as 63.5 ± 1.5 % of control and the “Platelet Aggregation (% of control)” value ([2]; preincubation 5 minutes) is reported as 41.3 ± 1.1 % of control. The “Platelet Aggregation (% of control)” value ([2]; preincubation 8 minutes) was 0 % of control, the “Platelet Aggregation (% of control)” value ([2]; preincubation 10 minutes) was 0 % of control and the “Platelet Aggregation (% of control)” value ([2]; preincubation 12 minutes) was 0 % of control. The “Platelet Aggregation (% of control)” value ([2]; preincubation 15 minutes) was 0 % of control, the “Platelet Aggregation (% of control)” value ([2]; preincubation 20 minutes) was 0 % of control and the “Platelet Aggregation (% of control)” value ([2]; preincubation 25 minutes) was 0 % of control. The “Platelet Aggregation (% of control)” value ([2]; preincubation 45 minutes) was 0 % of control, the “Hydrolysis rate constant (k)” value [4, 9] was 0.0061 ± 0.0027 hour^1 and the “Hydrolysis rate constant (k)” value ([4]; Krebs-Henseleit buffer 2% BSA) was 0.0028 ± 0.0013 hour^1. It also gave a half-life [4, 10] of 248 h, a half-life [4, 11] of 114 h and a Hepatic extraction [5, 8] of 0.74.
`O=C(O)c1cc(-c2ccc(F)cc2F)ccc1O` [DF, 2′,4′-difluoro-4-hydroxy-3-biphenylcarboxylic acid, reference compound] gave a Hepatic extraction [5, 7] of 0.38.
In the case of `CCCC(=O)Oc1ccccc1C(=O)O` [Compound C4SA, n-butanoylsalicylic acid], the solubility [6] is reported as 570 µg/mL and 2700 µM, the “Platelet Aggregation (% of control)” value ([2]; preincubation 3 minutes) is reported as 29.5 ± 1.5^d % of control and the “Platelet Aggregation (% of control)” value ([2]; preincubation 5 minutes) is reported as 0 % of control. The “Platelet Aggregation (% of control)” value ([2]; preincubation 8 minutes) was 0 % of control, the “Platelet Aggregation (% of control)” value ([2]; preincubation 10 minutes) was 0 % of control and the “Platelet Aggregation (% of control)” value ([2]; preincubation 12 minutes) was 0 % of control. For the same molecule, the “Platelet Aggregation (% of control)” value ([2]; preincubation 15 minutes) was 0 % of control, the “Platelet Aggregation (% of control)” value ([2]; preincubation 20 minutes) was 0 % of control and the “Platelet Aggregation (% of control)” value ([2]; preincubation 25 minutes) was 0 % of control. The “Platelet Aggregation (% of control)” value ([2]; preincubation 45 minutes) was 0 % of control, the “Hydrolysis rate constant (k)” value [4, 9] was 0.0049 ± 0.0037 hour^1 and the “Hydrolysis rate constant (k)” value ([4]; Krebs-Henseleit buffer 2% BSA) was 0.0031 ± 0.0015 hour^1. For the same molecule, the half-life [4, 10] was 224 h, the half-life [4, 11] was 141 h and the Hepatic extraction [5, 8] was 0.60.

From patent publication US6593365B1, “Diflunisal esters and related compounds” (The University of Queensland, priority 1997, dated 2003)
